Consider 1 molecule from patent US7429596B2, “1H-pyrrolo [2,3-D] pyrimidine derivatives and methods of use thereof” (The Regents of the University of California, priority 2003, dated 2008).

Positions count from the first letter of the chain named. “And” between values parts separate entries of the source, which are not always exact repeats. Identical values can stand only once. “Also recorded” adds a separate entry of the source. Like-named read-outs stand apart in the source and are kept apart here.

Data set [1] concerns A549 lung carcinoma cells. As to the kind of experiment: A549 cell killing / viability.
Data set [2] relates to A549 lung carcinoma cells. The experiment in a line: Cell cycle of A549 cells.
Data set [3] concerns the target T1, carbonyl reductase 1 (CBR1) (Homo sapiens, UniProt P16152).
T1 sequence (P16152 1-277): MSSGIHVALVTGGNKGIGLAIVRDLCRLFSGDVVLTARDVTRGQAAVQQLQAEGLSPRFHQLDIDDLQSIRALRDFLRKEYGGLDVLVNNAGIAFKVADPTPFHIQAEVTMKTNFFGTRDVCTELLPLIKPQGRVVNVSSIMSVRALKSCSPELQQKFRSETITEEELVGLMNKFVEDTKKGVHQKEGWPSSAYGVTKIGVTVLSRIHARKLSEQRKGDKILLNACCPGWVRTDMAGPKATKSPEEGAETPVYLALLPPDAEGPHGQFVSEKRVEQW
As to the kind of experiment: CBR1 inhibition: menadione reduction, NADPH absorbance at 340 nm. Type of data set: biochemical. On the set-up: 6-His (N); made in house; host or cells: E. coli. As for the experimental part:
CBR was expressed in E. coli and purified using glutathione beads; CBR has a naturally occurring. glutathione binding site. An N-terminal 6-His tagged protein was prepared to allow purification by metal affinity. Our CBR assay employs the synthetic substrate Menadione (2-methyl-1,4-naphthoquinone). Reaction progress is monitored by the decrease in NADPH-absorbance at 340 nm. Saturating concentrations of Menadione with variable concentrations of NADPH are employed in order to ascertain KI values.

Data set [4] has as its target T2, N90V mutant of carbonyl reductase 1 (CBR1) (Homo sapiens, UniProt P16152, N90V).
T2 construct: made in house
T2 sequence (P16152 1-277 N90V): T1 sequence (P16152 1-277) with N90V
As to the kind of experiment: Sensitivity of N90V mutant CBR1 to inhibitor. Type of data set: biochemical. As to conditions: FIG. 30. The source says: To understand the basis for the potency of AB129 against CBR1, a computer algorithm was used for molecular docking of AB129 to an available crystal structure of porcine CBR1 to produce a model of the bound structure of AB129 (FIG. 24). This modeled co-structure was experimentally validated by site-directed mutagenesis of multiple amino acids in the proposed AB129 binding pocket (including a conserved Asn residue common to all SDR family members—FIGS. 25-27) and identification of AB129 resistant mutants of CBR1 (FIGS. 28-30). This binding model also potentially explains the importance of the hydroxyl moiety attached to the phenyl ring of AB129, as being critical for a H-bonding interaction with an active site Asn.

The subject of data set [5] is A549 lung carcinoma cells. As to conditions: human, 2 days, 0.4 μM.
For a further data set, the target named is c-Fyn-wt (Homo sapiens, UniProt P06241). As to the kind of experiment: Inhibition of Src family kinase Fyn. The format is biochemical. As for the experimental part: Experiments were performed to determine whether AB129 was capable of inhibiting the Src family kinase, Fyn. […] Such a compound would serve as a test compound for determining the importance of dual inhibition of CBR1 and protein kinases.
c-Fyn-wt, sequence (P06241 whole entry): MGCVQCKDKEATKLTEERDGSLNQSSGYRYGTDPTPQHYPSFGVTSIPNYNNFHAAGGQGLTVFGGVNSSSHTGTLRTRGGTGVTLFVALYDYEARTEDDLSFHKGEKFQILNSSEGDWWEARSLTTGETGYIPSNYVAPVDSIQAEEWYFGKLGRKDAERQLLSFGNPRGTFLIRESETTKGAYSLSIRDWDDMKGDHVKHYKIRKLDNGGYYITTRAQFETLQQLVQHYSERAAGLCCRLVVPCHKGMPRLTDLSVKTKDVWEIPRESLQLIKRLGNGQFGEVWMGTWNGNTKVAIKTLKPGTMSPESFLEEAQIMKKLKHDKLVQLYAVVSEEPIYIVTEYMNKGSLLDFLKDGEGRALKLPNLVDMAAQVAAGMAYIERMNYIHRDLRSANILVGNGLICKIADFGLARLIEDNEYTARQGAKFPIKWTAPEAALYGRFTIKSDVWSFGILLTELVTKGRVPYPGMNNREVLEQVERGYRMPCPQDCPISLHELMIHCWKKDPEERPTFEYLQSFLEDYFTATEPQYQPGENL

A further data set is described as follows: i.v. serum half-life. The format is in vivo. As to conditions: iv, read-out: i.v. serum half-life (t1/2). The text has this: The data obtained from these cell culture assays and animal studies can be used in formulating a dosage range that is not toxic for use in human. The dosage of such compounds lies within a range of circulating concentrations that include the ED50 with little or no toxicity. The dosage can vary within this range depending upon the dosage form employed and the route of administration utilized. The exact formulation, route of administration and dosage can be chosen by the individual physician in view of the patient's condition. (See, e.g., Fingl et al., 1975, In: The Pharmacological Basis of Therapeutics, Ch. 1, p. 1). One of the advantages, among others, of using the AB129-type compounds and analogs described herein to treat disease, e.g., lung cancer or colon cancer is their lack of toxicity.

The target in data set [6] is T1, carbonyl reductase 1 (CBR1). As to the kind of experiment: Production of daunorubicinol from daunorubicin.
Source text: To independently confirm the ability of AB129 to inhibit CBR1 in A549 cells, an assay based on the role of CBR1 in attenuating the anti-cancer action of daunorubicin was employed.

By IC50 is commonly meant the concentration that gives 50% inhibition. Usually Ki stands for a measure of affinity in units of concentration, obtained from inhibition or displacement. High values mean a looser hold on the target, low ones a stronger hold on the target. For `CC(C)(C)n1nc(-c2cccc(O)c2)c2c(N)ncnc21` [AB129], the “cell killing in human lung cancer cell line A549” value in data set [1] is “mild to severe cell killing; also recorded: most potent A549 cell killing response”. Besides, the “A549 cells in G2/M phase” value in data set [2] is on record as “approximately 12%”. Further, the IC50 in data set [3] (FIG. 5, read-out: IC50, CBR1 catalyzed reduction of menadione by NADPH) was around 5000 nM; in data set [3] (Table 1, read-out: IC50 anti-hCBR1), 790 nM; on c-Fyn-wt (Table 1, read-out: IC50 anti-c-Fyn-wt), 8 nM; at c-Fyn-wt (read-out: anti-Fyn IC50), 10 nM. Further, the Ki in data set [3] (NADPH competitive) was 400 nM and 300 to 400 nM. For the same molecule, the “mode of inhibition of CBR1” value in data set [3] (with respect to NADPH) was “pure NADPH competitive inhibitor”. Also, the “sensitivity of N90V mutant CBR1 versus wild type CBR1” value in data set [4] is recorded as “less sensitive”. Moreover, the “loss of viability of A549 cells” value in data set [5] came out at 15%. For the same molecule, the half-life in the data set “i.v. serum half-life” lay within 2 to 2.5 h. The “production of cardiotoxic metabolite daunorubicinol from daunorubicin” value in data set [6] is given as “able to block production”.
